Earlier results in PMC5758054 (Journal of natural products, 2017).

Tested on: murine colorectal cancer lung metasteses
Conditions: ref [36],[37]

Q: With `N#C[C@@H]1CCCN1C(=O)CNC12CC3CC(CC(O)(C3)C1)C2` [Vildagliptin] as the compound, how does the “in vivo tumor suppressor activity (in words)” value read?
A: Its value is “has in vivo tumor suppressor activity”.
